Data: patent US8404643B2, “Metastin derivatives and use thereof” (priority 2005, dated 2013)
Numbered stars: 1 amine (or outer) side, 2 acyl side, 3 side chain; on linkers, the order of the positions; unused ones are H or OH. Square brackets hold non-standard residues; d marks the D form. Peptide text beside a SMILES is read from it. Phe(3R-OH) = O=C([C@@H](N[*:1])[C@H](O[*:3])c1ccccc1)[*:2]; Phe(βS-OH) = N[C@H](C(=O)O)[C@@H](O)c1ccccc1; Phe(2-F) = N[C@@H](Cc1ccccc1F)C(=O)O; Arg(Me) = CNC(=N)NCCC[C@H](N)C(=O)O; Dap(CONH2) = NC(=O)NC[C@H](N)C(=O)O; cisHyp = O=C(O)[C@@H]1C[C@H](O)CN1; Hyp = O=C(O)[C@@H]1C[C@@H](O)CN1; dDap = NC[C@@H](N)C(=O)O; Dab = NCC[C@H](N)C(=O)O; Nva = CCC[C@H](N)C(=O)O; azaGly = NNC(=O)O; βAla = NCCC(=O)O

Biological target: T1, hOT7T175 (Homo sapiens, UniProt Q969F8)
T1 construct: expressed in transfected cells
T1 sequence (Q969F8 whole entry L364H): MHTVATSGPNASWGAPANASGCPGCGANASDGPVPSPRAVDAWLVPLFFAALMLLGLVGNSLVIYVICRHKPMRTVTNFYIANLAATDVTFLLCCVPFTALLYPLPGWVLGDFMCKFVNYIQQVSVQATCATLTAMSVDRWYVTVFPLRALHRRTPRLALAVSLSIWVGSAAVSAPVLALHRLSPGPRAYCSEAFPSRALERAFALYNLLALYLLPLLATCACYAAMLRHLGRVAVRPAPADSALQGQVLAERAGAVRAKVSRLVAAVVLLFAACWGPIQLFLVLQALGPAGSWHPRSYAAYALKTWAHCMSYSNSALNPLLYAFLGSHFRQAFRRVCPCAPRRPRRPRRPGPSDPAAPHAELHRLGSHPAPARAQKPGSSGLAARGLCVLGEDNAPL
Assay: Assay for intracellular Ca ion level-increasing activity using FLIPR
Assay type: cell-based
Details: hOT7T175/CHO cells, relative to Metastin (1-54)
Procedure: In accordance with the method described in JPA 2000-312590, the intracellular Ca ion level-increasing activity was measured using FLIPR.
The stable expression cell line hOT7T175 was obtained by transfection of the expression plasmid pAK-rOT175 for animal cells into CHO/dhfr^− cells, using CellPhect Transfection Kit (Amersham Pharmacia Biotech, Inc.). First, 240 μL of Buffer A (attached to CellPhect Transfection Kit) was added to 9.6 μg of plasmid DNA dissolved in 240 μL of distilled water followed by stirring. After the mixture was settled for 10 minutes, 480 μL of Buffer B (attached to CellPhect Transfection Kit) was added to the mixture, which was vigorously stirred to form liposomes containing the DNA. Then, 4×10^5 CHO/dhfr^− cells (obtained from ATCC) were inoculated on a 60 mm Petri dish. After culturing the cells in Ham's F-12 medium (Nissui Seiyaku Co., Ltd.) supplemented with 10% fetal bovine serum (BIO WHITTAKER, Inc.) at 37° C. for 2 days in 5% carbon dioxide gas, […] of the liposomes were dropwise added to the cells on the Petri dish. After culturing the cells at 37° C. for 6 hours in 5% carbon dioxide gas, the cells were washed twice with serum-free Ham's F-12 medium and 3 mL of 15% glycerol was added to the cells on the Petri dish followed by treatment for 2 minutes. The cells were again washed twice with serum-free Ham's F-12 medium followed by incubation in Ham's F-12 medium supplemented with 10% fetal bovine serum at 37° C. for 15 hours in 5% carbon dioxide gas. The cells were dispersed by trypsin treatment to recover from the Petri dish. The recovered cells were inoculated on a 6-well plate in 1.25×10^4 cells/well and incubation was initiated at 37° C. in Dulbecco's modified Eagle medium (DMEM) medium (Nissui Seiyaku Co., Ltd.) containing 10% dialyzed fetal bovine serum (JRH BIOSCIENCES, Inc.) in 5% carbon dioxide gas. The plasmid-transfected CHO transformants grew in the medium but the non-transfected cells gradually died, accordingly the medium was exchanged on Days 1 and 2 after the initiation of incubation to remove the cells died. Approximately 20 colonies of the CHO transformants that kept growing on Days 8 to 10 after the incubation were isolated. From the cells in these colonies, cells showing high reactivity with the ligand peptide metastin (hereinafter merely referred to as hOT7T175/CHO) were selected to provide for the following experiment.
The intracellular Ca ion level-increasing activity of the synthetic peptide in hOT7T175/CHO was determined using FLIPR (Molecular Devices, Inc.).
hOT7T175/CHO was subcultured in DMEM supplemented with 10% dialyzed fetal bovine serum (hereinafter abbreviated as dFBS) (hereinafter referred to as 10% dFBS/DMEM) and provided for the experiment. The hOT7T175/CHO was suspended in 10% dFBS-DMEM in 15×10^4 cells/ml. The suspension was inoculated on a 96-well plate for FLIPR (Black Plate Clear Bottom, Coster, Inc.) at 200 μl/well (3.0×10^4 cells/200 μL/well), followed by incubation at 37° C. overnight in a 5% CO2 incubator (hereinafter referred to as the cell plate). Then, 21 ml of HANKS/HBSS (9.8 g of HANKS, 0.35 g of sodium hydrogencarbonate, 20 ml of 1M HEPES; after adjusting the pH to 7.4 with 1N sodium hydroxide, the mixture was sterilized by filtration), 210 μl of 250 mM Probenecid and 210 μl of fetal bovine serum (FBS) (HANKS/HBSS-Probenecid-FBS) were mixed.
Furthermore, 2 vials of Fluo3-AM (50 μg/vial) were dissolved in 21 μL of dimethylsulfoxide and 21 μL of 20% Pluronic acid. The resulting solution was added to and mixed with 10 ml of the HANKS/HBSS-Probenecid-FBS described above. After the culture medium was removed, the mixture was dispensed onto the cell plate in 100 μl each/well, followed by incubation at 37° C. for an hour in a 5% CO2 incubator (pigment loading). The peptide was dissolved in dimethylsulfoxide in 1×10^−3 M. The peptide solution was diluted with HANKS/HBSS containing 2.5 mM Probenecid, 0.2% BSA and 0.1% CHAPS. […]

Specific Activity: intracellular Ca ion level-increasing activity [specific activity to Metastin (1-54)] | Structure (SMILES)
0.8 | CNC(=N)NCCC[C@H](NC(=O)[C@H](CC(C)C)NC(=O)NNC(=O)[C@@H](NC(=O)[C@@H](NC(=O)[C@H](CC(N)=O)NC(=O)[C@@H]1C[C@@H](O)CN1C(=O)[C@@H](Cc1ccc(O)cc1)NC(C)=O)[C@@H](C)O)[C@@H](O)c1ccccc1)C(=O)N[C@@H](Cc1c[nH]c2ccccc12)C(N)=O [Compound No. 882, Ac-D-Tyr-Hyp-Asn-Thr-erythro-Ser(3Phenyl)-AzaGly-Leu-Arg(Me)-Trp-NH2] (Ac-[dY][Hyp]NT[Phe(βS-OH)][azaGly]L[Arg(Me)]W-NH2)
0.8 | CNC(=N)NCCC[C@H](NC(=O)[C@H](CC(C)C)NC(=O)NNC(=O)[C@H](Cc1ccccc1)NC(=O)[C@@H](NC(=O)[C@H](CNC(N)=O)NC(=O)[C@@H]1C[C@@H](O)CN1C(=O)[C@@H](Cc1ccc(O)cc1)NC(C)=O)[C@@H](C)O)C(=O)N[C@@H](Cc1c[nH]c2ccccc12)C(N)=O [Compound No. 800, Ac-D-Tyr-Hyp-Alb-Thr-Phe-AzaGly-Leu-Arg(Me)-Trp-NH2] (Ac-[dY][Hyp][Dap(CONH2)]TF[azaGly]L[Arg(Me)]W-NH2)
1.0 | CNC(=N)NCCC[C@H](NC(=O)[C@H](CC(C)C)NC(=O)NNC(=O)[C@@H](NC(=O)[C@@H](NC(=O)[C@H](CC(N)=O)NC(=O)[C@@H]1C[C@@H](O)CN1C(=O)[C@@H](Cc1ccc(O)cc1)NC(C)=O)[C@@H](C)O)[C@H](O)c1ccccc1)C(=O)N[C@@H](Cc1c[nH]c2ccccc12)C(N)=O [Compound No. 877, Ac-D-Tyr-Hyp-Asn-Thr-threo-Ser(3Phenyl)-AzaGly-Leu-Arg(Me)-Trp-NH2] (Ac-[dY][Hyp]NT[Phe(3R-OH)][azaGly]L[Arg(Me)]W-NH2)
1.2 | CCC[C@H](NC(=O)[C@@H]1C[C@@H](O)CN1C(=O)[C@@H](Cc1ccc(O)cc1)NC(C)=O)C(=O)N[C@H](C(=O)N[C@@H](Cc1ccccc1)C(=O)NNC(=O)N[C@@H](CC(C)C)C(=O)N[C@@H](CCCNC(=N)NC)C(=O)N[C@@H](Cc1c[nH]c2ccccc12)C(N)=O)[C@@H](C)O [Compound No. 886, Ac-D-Tyr-Hyp-Nva-Thr-Phe-AzaGly-Leu-Arg(Me)-Trp-NH2] (Ac-[dY][Hyp][Nva]TF[azaGly]L[Arg(Me)]W-NH2)
1.4 | CNC(=N)NCCC[C@H](NC(=O)[C@H](CC(C)C)NC(=O)NNC(=O)[C@H](Cc1ccccc1)NC(=O)[C@@H](NC(=O)[C@H](CCCNC(=N)N)NC(=O)[C@@H]1C[C@@H](O)CN1C(=O)[C@@H](Cc1ccc(O)cc1)NC(C)=O)[C@@H](C)O)C(=O)N[C@@H](Cc1c[nH]c2ccccc12)C(N)=O [Compound No. 861, Ac-D-Tyr-Hyp-Arg-Thr-Phe-AzaGly-Leu-Arg(Me)-Trp-NH2] (Ac-[dY][Hyp]RTF[azaGly]L[Arg(Me)]W-NH2)
0.6 | CNC(=N)NCCC[C@H](NC(=O)[C@H](CC(C)C)NC(=O)NNC(=O)[C@H](Cc1ccccc1)NC(=O)[C@@H](NC(=O)[C@H](CC(N)=O)NC(=O)[C@@H]1C[C@H](O)CN1C(=O)[C@@H](Cc1ccc(O)cc1)NC(C)=O)[C@@H](C)O)C(=O)N[C@@H](Cc1c[nH]c2ccccc12)C(N)=O [Compound No. 896, Ac-D-Tyr-cisHyp-Asn-Thr-Phe-AzaGly-Leu-Arg(Me)-Trp-NH2] (Ac-[dY][cisHyp]NTF[azaGly]L[Arg(Me)]W-NH2)

Continued, compound first:

Structure (SMILES) | Specific Activity: intracellular Ca ion level-increasing activity [specific activity to Metastin (1-54)]
CNC(=N)NCCC[C@H](NC(=O)[C@H](CC(C)C)NC(=O)NNC(=O)[C@H](Cc1ccccc1)NC(=O)[C@@H](NC(=O)[C@H](CCN)NC(=O)[C@@H](Cc1c[nH]c2ccccc12)NC(=O)[C@@H](Cc1ccc(O)cc1)NC(C)=O)[C@@H](C)O)C(=O)N[C@@H](Cc1c[nH]c2ccccc12)C(N)=O [Compound No. 740, Ac-D-Tyr-D-Trp-Dab-Thr-Phe-AzaGly-Leu-Arg(Me)-Trp-NH2] (Ac-[dY][dW][Dab]TF[azaGly]L[Arg(Me)]W-NH2) | 1.1
CNC(=N)NCCC[C@H](NC(=O)[C@H](CC(C)C)NC(=O)NNC(=O)[C@H](Cc1ccccc1)NC(=O)[C@@H](NC(=O)[C@H](CC(N)=O)NC(=O)[C@@H](CN)NC(=O)[C@@H](Cc1ccc(O)cc1)NC(C)=O)[C@@H](C)O)C(=O)N[C@@H](Cc1c[nH]c2ccccc12)C(N)=O [Compound No. 736, Ac-D-Tyr-D-Dap-Asn-Thr-Phe-AzaGly-Leu-Arg(Me)-Trp-NH2] (Ac-[dY][dDap]NTF[azaGly]L[Arg(Me)]W-NH2) | 2.4
CNC(=N)NCCC[C@H](NC(=O)[C@H](CC(C)C)NC(=O)NNC(=O)[C@H](Cc1ccccc1F)NC(=O)[C@@H](NC(=O)[C@H](CC(N)=O)NC(=O)CNC(=O)[C@@H](Cc1ccc(O)cc1)NC(C)=O)[C@@H](C)O)C(=O)N[C@@H](Cc1c[nH]c2ccccc12)C(N)=O [Compound No. 783, Ac-D-Tyr-Gly-Asn-Thr-Phe(2F)-AzaGly-Leu-Arg(Me)-Trp-NH2] (Ac-[dY]GNT[Phe(2-F)][azaGly]L[Arg(Me)]W-NH2) | 8.8
CNC(=N)NCCC[C@H](NC(=O)[C@H](CC(C)C)NC(=O)NNC(=O)[C@@H](Cc1ccccc1)NC(=O)[C@@H](NC(=O)[C@H](CC(N)=O)NC(=O)[C@@H]1C[C@@H](O)CN1C(=O)[C@@H](Cc1ccc(O)cc1)NC(C)=O)[C@@H](C)O)C(=O)N[C@@H](Cc1c[nH]c2ccccc12)C(N)=O [Compound No. 794, Ac-D-Tyr-Hyp-Asn-Thr-D-Phe-AzaGly-Leu-Arg(Me)-Trp-NH2] (Ac-[dY][Hyp]NT[dF][azaGly]L[Arg(Me)]W-NH2) | 2.3
CNC(=N)NCCC[C@H](NC(=O)[C@H](CC(C)C)NC(=O)NNC(=O)[C@H](Cc1ccccc1)NC(=O)[C@@H](NC(=O)[C@H](CC(N)=O)NC(=O)CCNC(=O)[C@@H](Cc1ccc(O)cc1)NC(C)=O)[C@@H](C)O)C(=O)N[C@@H](Cc1c[nH]c2ccccc12)C(N)=O [Compound No. 747, Ac-D-Tyr-β-Ala-Asn-Thr-Phe-AzaGly-Leu-Arg(Me)-Trp-NH2] (Ac-[dY][βAla]NTF[azaGly]L[Arg(Me)]W-NH2) | 2.6
CC(=O)N[C@H](Cc1ccc(O)cc1)C(=O)N[C@H](Cc1c[nH]c2ccccc12)C(=O)N[C@@H](CC(N)=O)C(=O)N[C@H](C(=O)N[C@@H](Cc1ccccc1)C(=O)NNC(=O)N[C@@H](CC(C)C)C(=O)N[C@H](CCCNC(=N)N)C(=O)N[C@@H](Cc1c[nH]c2ccccc12)C(N)=O)[C@@H](C)O [Compound No. 708, Ac-D-Tyr-D-Trp-Asn-Thr-Phe-AzaGly-Leu-D-Arg-Trp-NH2] (Ac-[dY][dW]NTF[azaGly]L[dR]W-NH2) | 12.8
CNC(=N)NCCC[C@H](NC(=O)[C@H](CC(C)C)NC(=O)NNC(=O)[C@H](Cc1ccccc1F)NC(=O)[C@@H](NC(=O)[C@H](CC(N)=O)NC(=O)[C@H](CCC(=O)O)NC(=O)[C@@H](Cc1ccc(O)cc1)NC(C)=O)[C@@H](C)O)C(=O)N[C@@H](Cc1c[nH]c2ccccc12)C(N)=O [Compound No. 755, Ac-D-Tyr-Glu-Asn-Thr-Phe(2F)-AzaGly-Leu-Arg(Me)-Trp-NH2] (Ac-[dY]ENT[Phe(2-F)][azaGly]L[Arg(Me)]W-NH2) | 3.5
